Publication PMC6616073 (Frontiers in Pharmacology, 2019)
Like-named read-outs stand apart in the source and are kept apart here. Positions of bridges follow the written chain, without caps; N, C: chain ends. Residues, ends and D or L forms follow the SMILES beside them.

Legend:
[1] = biological target: membrane-bound Torpedo californica nAChR (Tetronarce californica, UniProt P02710+P02712+P02714+P02718); experiment: biochemical; type: binding
[2] = biological target: T1, AChBP from Aplysia californica (Aplysia californica, UniProt Q8WSF8); experiment: biochemical; type: binding
T1 construct: made in house
T1 sequence (Q8WSF8 entry or part of it): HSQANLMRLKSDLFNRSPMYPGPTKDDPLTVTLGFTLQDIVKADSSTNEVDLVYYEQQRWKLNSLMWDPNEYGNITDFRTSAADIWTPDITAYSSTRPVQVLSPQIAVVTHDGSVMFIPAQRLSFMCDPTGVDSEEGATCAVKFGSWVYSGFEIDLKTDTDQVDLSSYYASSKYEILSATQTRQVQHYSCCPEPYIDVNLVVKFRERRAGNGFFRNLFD

rat α9α10 nAChR = biological target: T2, rat α9α10 nAChR (Rattus norvegicus, UniProt P43144+Q9JLB5); experiment: Two-electrode voltage clamp, rat α9α10 nAChR in Xenopus oocytes; type: cell-based; conditions: X. laevis oocytes, 30 μM acetylcholine, 5 min pre-incubation with peptide, −60 mV; n = 3; read-out: IC50, inhibition of acetylcholine-induced ion currents in rat α9α10 nAChR
T2 construct: expressed in transfected cells; host or cells: Xenopus laevis oocytes injected with cRNA (pGEMHE vector)
T2 sequence (Q9JLB5 25-447): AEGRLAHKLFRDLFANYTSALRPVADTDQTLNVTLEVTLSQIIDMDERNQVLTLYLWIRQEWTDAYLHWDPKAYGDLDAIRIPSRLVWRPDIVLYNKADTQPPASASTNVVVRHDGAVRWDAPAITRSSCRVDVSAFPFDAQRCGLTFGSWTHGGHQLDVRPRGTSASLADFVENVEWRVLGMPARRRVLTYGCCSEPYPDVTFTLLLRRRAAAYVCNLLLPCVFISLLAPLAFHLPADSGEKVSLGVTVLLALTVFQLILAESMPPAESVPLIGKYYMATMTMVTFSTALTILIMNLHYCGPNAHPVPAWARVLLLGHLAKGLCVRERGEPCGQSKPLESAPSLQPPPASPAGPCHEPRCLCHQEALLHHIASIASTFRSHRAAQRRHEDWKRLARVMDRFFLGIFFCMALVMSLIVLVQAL
T2 sequence (P43144 26-479): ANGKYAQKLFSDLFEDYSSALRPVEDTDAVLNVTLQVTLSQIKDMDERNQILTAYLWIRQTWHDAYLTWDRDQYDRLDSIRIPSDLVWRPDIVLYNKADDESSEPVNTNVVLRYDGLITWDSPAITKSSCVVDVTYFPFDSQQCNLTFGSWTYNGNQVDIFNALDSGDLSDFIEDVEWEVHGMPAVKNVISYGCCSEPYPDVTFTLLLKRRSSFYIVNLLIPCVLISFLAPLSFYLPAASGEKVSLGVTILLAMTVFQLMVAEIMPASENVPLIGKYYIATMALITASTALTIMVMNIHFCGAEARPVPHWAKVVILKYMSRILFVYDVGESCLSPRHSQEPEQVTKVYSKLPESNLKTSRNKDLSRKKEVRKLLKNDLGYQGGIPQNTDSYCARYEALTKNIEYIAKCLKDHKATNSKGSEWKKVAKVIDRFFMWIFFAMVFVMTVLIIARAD
Protocol: Oocytes were removed from mature, anesthetized Xenopus laevis by dissecting abdomen and removing necessary amount of ovarium. Stage V–VI Xenopus laevis oocytes were defolliculated with 2 mg/ml collagenase type I (Life Technologies, Camarillo, USA) at room temperature (21–24°C) for 2 h in Ca^2+-free Barth’s solution composed of (in mM) 88 NaCl, 1.1 KCl, 2.4 NaHCO3, 0.8 MgSO4, and 15 HEPES-NaOH at pH 7.6. Oocytes were injected with 9.2 ng of rat or human nAChR α9 and α10 cRNA (in a ratio 1:1) or human α3 and β2 or α4 and β2 cRNA (in a ratio 1:1). Oocytes were incubated at 18°C for 2–4 days before electrophysiological recordings in Barth’s solution composed of (in mM) 88 NaCl, 1.1 KCl, 2.4 NaHCO3, 0.3 Ca(NO3)2, 0.4 CaCl2, 0.8 MgSO4, and 15 HEPES-10NaOH at pH 7.6, supplemented with 40 μg/ml gentamicin and 100 μg/ml ampicillin. Recordings were performed using turbo TEC-03X amplifier (NPI Electronic, Tamm, Germany) and WinWCP recording software (University of Strathclyde, Glasgow, UK). The glass recording electrodes were filled with 3 M KCl and the electrode resistance was 0.1−0.5 MΩ. Membrane potential was clamped at −60 mV. […] The peak current amplitudes of ACh-induced responses were measured before (ACh alone) and after the preincubation of oocytes with peptides. […]

human α7 nAChR = human α7 nAChR (Homo sapiens, UniProt P36544); experiment: cell-based; type: binding
Sequence of human α7 nAChR (P36544 23-502): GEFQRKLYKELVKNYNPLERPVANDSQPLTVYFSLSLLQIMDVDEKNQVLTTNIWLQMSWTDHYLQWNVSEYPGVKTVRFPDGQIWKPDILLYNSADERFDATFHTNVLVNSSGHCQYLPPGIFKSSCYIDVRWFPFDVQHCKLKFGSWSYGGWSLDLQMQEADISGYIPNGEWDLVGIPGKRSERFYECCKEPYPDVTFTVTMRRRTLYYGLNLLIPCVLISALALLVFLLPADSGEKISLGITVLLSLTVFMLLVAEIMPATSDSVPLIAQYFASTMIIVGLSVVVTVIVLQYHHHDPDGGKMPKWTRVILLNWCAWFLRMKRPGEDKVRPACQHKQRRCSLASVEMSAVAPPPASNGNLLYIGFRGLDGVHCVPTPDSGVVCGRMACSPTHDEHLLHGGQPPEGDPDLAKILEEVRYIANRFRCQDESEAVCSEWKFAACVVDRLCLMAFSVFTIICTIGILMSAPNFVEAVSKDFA

human α9α10 nAChR = biological target: T3, human α9α10 nAChR (Homo sapiens, UniProt Q9GZZ6+Q9UGM1); experiment: Two-electrode voltage clamp, human α9α10 nAChR in Xenopus oocytes; type: cell-based; conditions: for inhibition of human α9α10 nAChR (result in words): concentrations as high as 50 µM, Xenopus oocytes, data not shown
T3 construct: expressed in transfected cells; host or cells: Xenopus laevis oocytes injected with cRNA (pT7TS vector)
T3 sequence (Q9UGM1 26-479 limits assumed): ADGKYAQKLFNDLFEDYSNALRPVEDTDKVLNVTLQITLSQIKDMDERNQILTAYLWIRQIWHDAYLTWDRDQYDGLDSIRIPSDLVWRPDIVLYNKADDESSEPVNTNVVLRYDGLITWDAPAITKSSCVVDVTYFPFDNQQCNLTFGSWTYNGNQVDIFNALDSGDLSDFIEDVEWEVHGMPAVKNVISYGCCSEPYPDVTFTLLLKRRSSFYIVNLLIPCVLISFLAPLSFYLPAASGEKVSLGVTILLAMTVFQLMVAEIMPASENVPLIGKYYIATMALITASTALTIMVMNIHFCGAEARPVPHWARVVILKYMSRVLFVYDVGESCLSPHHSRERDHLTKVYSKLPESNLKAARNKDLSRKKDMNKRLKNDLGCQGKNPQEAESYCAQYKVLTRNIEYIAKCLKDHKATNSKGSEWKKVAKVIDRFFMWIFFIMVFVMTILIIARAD
T3 sequence (Q9GZZ6 25-450): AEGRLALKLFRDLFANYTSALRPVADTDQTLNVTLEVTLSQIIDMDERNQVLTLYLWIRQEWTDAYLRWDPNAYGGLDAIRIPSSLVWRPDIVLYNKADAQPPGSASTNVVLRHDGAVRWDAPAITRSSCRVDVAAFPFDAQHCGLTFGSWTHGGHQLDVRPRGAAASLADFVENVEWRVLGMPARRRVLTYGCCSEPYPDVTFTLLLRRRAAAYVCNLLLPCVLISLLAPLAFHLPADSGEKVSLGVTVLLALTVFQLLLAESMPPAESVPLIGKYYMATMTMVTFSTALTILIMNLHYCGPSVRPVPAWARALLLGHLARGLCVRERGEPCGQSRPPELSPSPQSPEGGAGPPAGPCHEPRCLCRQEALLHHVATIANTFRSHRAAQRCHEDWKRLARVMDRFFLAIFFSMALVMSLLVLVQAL
Protocol: (§1) Oocytes were removed from mature, anesthetized Xenopus laevis by dissecting abdomen and removing necessary amount of ovarium. Stage V–VI Xenopus laevis oocytes were defolliculated with 2 mg/ml collagenase type I (Life Technologies, Camarillo, USA) at room temperature (21–24°C) for 2 h in Ca^2+-free Barth’s solution composed of (in mM) 88 NaCl, 1.1 KCl, 2.4 NaHCO3, 0.8 MgSO4, and 15 HEPES-NaOH at pH 7.6. Oocytes were injected with 9.2 ng of rat or human nAChR α9 and α10 cRNA (in a ratio 1:1) or human α3 and β2 or α4 and β2 cRNA (in a ratio 1:1). Oocytes were incubated at 18°C for 2–4 days before electrophysiological recordings in Barth’s solution composed of (in mM) 88 NaCl, 1.1 KCl, 2.4 NaHCO3, 0.3 Ca(NO3)2, 0.4 CaCl2, 0.8 MgSO4, and 15 HEPES-10NaOH at pH 7.6, supplemented with 40 μg/ml gentamicin and 100 μg/ml ampicillin. Recordings were performed using turbo TEC-03X amplifier (NPI Electronic, Tamm, Germany) and WinWCP recording software (University of Strathclyde, Glasgow, UK). The glass recording electrodes were filled with 3 M KCl and the electrode resistance was 0.1−0.5 MΩ. Membrane potential was clamped at −60 mV. Oocytes were briefly washed with Ba^2+ Ringer’s solution ([Fuchs and Murrow, 1992]) composed of (in mM) 115 NaCl, 2.5 KCl, 1.8 BaCl2, 10 HEPES at pH 7.2, followed by three applications of 10 μM acetylcholine (ACh). Washout with Ba^2+ Ringer’s was done for 5 min between ACh applications. Oocytes were preincubated with various concentrations of Ly6 peptides for 5 min followed by their co-application with ACh. To induce ion current, we used ACh in the concentration range from 10 to 30 μM. The peak current amplitudes of ACh-induced responses were measured before (ACh alone) and after the preincubation of oocytes with peptides. The ratio between these two measurements was used to assess the activity of the tested compounds. In the experiments with α3β2 and α4β2, the above technique was also used, except that oocytes were washed in Barth`s solution. All control experiments were performed on the same day.
Rat α9 and α10 cDNAs was cloned in a pGEMHE vector; human α9, α10, α3, and β2 cDNAs were derived from pT7TS vector. Human α4 was cloned in pSP64 vector. Plasmid pT7TS constructs of human nAChR α9 and α10 subunits and human α3 and β2 subunits were linearized with XbaI restriction enzymes (NEB, Ipswich, USA). pSP64 vector was linearized with BamH1 restriction enzymes (NEB, Ipswich, USA). Rat α9 and α10 plasmids were linearized using NheI (NEB, Ipswich, USA). All plasmid constructs were sequencing before mRNA synthesis. […]

human α3β2 nAChR = experiment: Two-electrode voltage clamp, human α3β2 nAChR in Xenopus oocytes; type: cell-based; conditions: X. laevis oocytes; for activity on ion currents in α3β2 nAChR (result in words): 30 μM acetylcholine, 30 µM peptide in text, 50 μM in Figure 4, n = 3 or 5
Protocol: as §1, with “day. […]” for “day.”

[3] = […], 90 min with peptide + 5 min with radioligand, 20 mM Tris-HCl pH 8.0, 1 mg/ml BSA, mean (95% CI), three to four independent experiments, read-out: IC50, μM (95%CI) T. californica
[4] = […], 90 min with peptide + 5 min with radioligand, three to four independent experiments, read-out: IC50, μM (95%CI) AChBP

Sequence of membrane-bound Torpedo californica nAChR (P02714 18-506): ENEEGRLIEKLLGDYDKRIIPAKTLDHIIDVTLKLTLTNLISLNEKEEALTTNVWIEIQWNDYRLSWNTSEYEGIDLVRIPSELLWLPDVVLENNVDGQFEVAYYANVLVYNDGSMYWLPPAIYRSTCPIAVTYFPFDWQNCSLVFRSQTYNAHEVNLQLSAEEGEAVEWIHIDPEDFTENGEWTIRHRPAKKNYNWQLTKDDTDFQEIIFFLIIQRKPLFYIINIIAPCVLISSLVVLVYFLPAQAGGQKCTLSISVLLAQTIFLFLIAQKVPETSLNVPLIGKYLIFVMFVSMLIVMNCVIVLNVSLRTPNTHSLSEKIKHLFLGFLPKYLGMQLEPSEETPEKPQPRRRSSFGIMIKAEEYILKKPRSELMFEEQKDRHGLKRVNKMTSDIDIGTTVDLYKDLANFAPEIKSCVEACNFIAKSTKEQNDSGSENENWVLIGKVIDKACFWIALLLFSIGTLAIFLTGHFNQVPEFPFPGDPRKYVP
Sequence of membrane-bound Torpedo californica nAChR (P02710 25-461): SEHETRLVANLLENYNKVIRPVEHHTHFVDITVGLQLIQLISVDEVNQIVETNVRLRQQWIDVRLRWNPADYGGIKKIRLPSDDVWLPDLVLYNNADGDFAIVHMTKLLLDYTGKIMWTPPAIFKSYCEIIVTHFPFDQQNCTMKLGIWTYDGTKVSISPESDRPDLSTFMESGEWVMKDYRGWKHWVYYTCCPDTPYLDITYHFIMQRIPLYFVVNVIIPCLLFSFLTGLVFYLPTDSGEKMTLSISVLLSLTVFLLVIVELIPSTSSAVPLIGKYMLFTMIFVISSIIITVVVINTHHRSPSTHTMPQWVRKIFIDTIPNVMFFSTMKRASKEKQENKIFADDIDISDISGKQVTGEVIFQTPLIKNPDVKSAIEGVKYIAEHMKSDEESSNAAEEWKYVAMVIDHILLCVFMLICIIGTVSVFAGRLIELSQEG
Sequence of membrane-bound Torpedo californica nAChR (P02718 22-522): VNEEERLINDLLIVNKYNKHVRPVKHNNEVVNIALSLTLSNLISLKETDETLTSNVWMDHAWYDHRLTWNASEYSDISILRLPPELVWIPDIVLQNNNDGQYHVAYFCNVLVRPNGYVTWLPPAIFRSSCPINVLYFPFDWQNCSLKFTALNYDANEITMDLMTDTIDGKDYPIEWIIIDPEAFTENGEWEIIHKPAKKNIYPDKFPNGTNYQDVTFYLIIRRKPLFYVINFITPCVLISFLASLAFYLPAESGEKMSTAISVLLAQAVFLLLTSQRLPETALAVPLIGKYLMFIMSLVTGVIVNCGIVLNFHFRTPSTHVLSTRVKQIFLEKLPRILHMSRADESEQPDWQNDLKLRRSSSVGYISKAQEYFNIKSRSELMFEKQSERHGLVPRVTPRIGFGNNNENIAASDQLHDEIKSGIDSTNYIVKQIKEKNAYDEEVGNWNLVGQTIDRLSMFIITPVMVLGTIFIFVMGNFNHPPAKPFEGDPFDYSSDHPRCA
Sequence of membrane-bound Torpedo californica nAChR (P02712 25-493): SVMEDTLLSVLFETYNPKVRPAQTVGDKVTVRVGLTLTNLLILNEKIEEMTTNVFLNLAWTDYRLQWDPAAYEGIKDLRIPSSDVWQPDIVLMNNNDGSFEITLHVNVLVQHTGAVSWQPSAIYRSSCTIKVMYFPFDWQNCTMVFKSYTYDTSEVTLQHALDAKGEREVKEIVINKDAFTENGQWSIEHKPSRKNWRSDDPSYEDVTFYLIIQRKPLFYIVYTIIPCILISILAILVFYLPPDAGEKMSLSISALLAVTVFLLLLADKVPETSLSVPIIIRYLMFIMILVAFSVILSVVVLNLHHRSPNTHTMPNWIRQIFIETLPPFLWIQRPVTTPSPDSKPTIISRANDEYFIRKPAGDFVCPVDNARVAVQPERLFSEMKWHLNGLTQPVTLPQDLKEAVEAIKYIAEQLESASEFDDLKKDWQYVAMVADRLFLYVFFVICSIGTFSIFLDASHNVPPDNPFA

Molecule `CSCC[C@@H]1NC(=O)[C@H](CCCNC(=N)N)NC(=O)[C@H]([C@@H](C)O)NC(=O)[C@@H]2CCCN2C(=O)[C@H]([C@@H](C)O)NC(=O)[C@H](Cc2ccc(O)cc2)NC(=O)[C@H](Cc2ccc(O)cc2)NC(=O)[C@H]([C@@H](C)O)NC(=O)[C@H](CCCNC(=N)N)NC(=O)[C@H]([C@@H](C)O)NC(=O)[C@H]([C@@H](C)O)NC(=O)[C@@H](N)CSSC[C@@H](C(=O)O)NC(=O)[C@H](CCCCN)NC(=O)[C@H](CO)NC(=O)[C@H](C(C)C)NC(=O)[C@H](CCCCN)NC1=O` [Lynx1 (1)] (H-CTTRTYYTPTRMKVSKC-OH; disulfide 1-17) has an IC50 ([1]; IC50, μM (95%CI) T. californica) of 4.9 µM, an IC50 [2] of over 100 µM and an IC50 (rat α9α10 nAChR) of 27 µM.

For `CSCC[C@H](NC(=O)[C@H](CCCNC(=N)N)NC(=O)[C@@H](NC(=O)[C@@H]1CCCN1C(=O)[C@@H](NC(=O)[C@H](Cc1ccc(O)cc1)NC(=O)[C@H](Cc1ccc(O)cc1)NC(=O)[C@@H](NC(=O)[C@H](CCCNC(=N)N)NC(=O)[C@@H](NC(=O)[C@@H](N)[C@@H](C)O)[C@@H](C)O)[C@@H](C)O)[C@@H](C)O)[C@@H](C)O)C(=O)N[C@@H](CCCCN)C(=O)N[C@H](C(=O)N[C@@H](CO)C(=O)N[C@@H](CCCCN)C(=O)O)C(C)C` [Lynx1 linear (2)] (H-TTRTYYTPTRMKVSK-OH), the IC50 [1, 3] was 13.2 µM, the IC50 (human α7 nAChR; […], 90 min with peptide + 5 min with radioligand, Tris-HCl pH 8.0, mean (95% CI), three to four independent experiments) was over 180 µM and the IC50 [2, 4] was over 100 µM. It also gave an IC50 (human α9α10 nAChR) of 32.3 µM.

In the case of `CSCC[C@@H]1NC(=O)[C@H](CCCNC(=N)N)NC(=O)[C@H]([C@@H](C)O)NC(=O)[C@@H]2CCCN2C(=O)[C@H]([C@@H](C)O)NC(=O)[C@H](Cc2ccc(O)cc2)NC(=O)[C@H](Cc2ccc(O)cc2)NC(=O)[C@H]([C@@H](C)O)NC(=O)[C@H](CCCNC(=N)N)NC(=O)[C@H]([C@@H](C)O)NC(=O)[C@@H](N)CSSC[C@@H](C(=O)O)NC1=O` [Lynx1 short (3)] (H-CTRTYYTPTRMC-OH; disulfide 1-12), the IC50 [1, 3] is reported as 74.1 µM and the IC50 [2, 4] is reported as over 100 µM.

Work on `CSCC[C@H](NC(=O)[C@H](CCCNC(=N)N)NC(=O)[C@@H](NC(=O)[C@@H]1CCCN1C(=O)[C@@H](NC(=O)[C@H](Cc1ccc(O)cc1)NC(=O)[C@H](Cc1ccc(O)cc1)NC(=O)[C@@H](NC(=O)[C@H](CCCNC(=N)N)NC(=O)[C@@H](NC(=O)[C@@H](N)CS)[C@@H](C)O)[C@@H](C)O)[C@@H](C)O)[C@@H](C)O)C(=O)N[C@@H](CS)C(=O)O` [Lynx1 short linear (4)] (H-CTRTYYTPTRMC-OH) yielded an IC50 [1, 3] of 15.6 µM and an IC50 [2, 4] of over 100 µM.

For `CC(C)C[C@@H]1NC(=O)[C@H]([C@@H](C)O)NC(=O)[C@@H](N)CSSC[C@@H](C(=O)O)NC(=O)[C@H]([C@@H](C)O)NC(=O)[C@H](C(C)C)NC(=O)[C@H](C(C)C)NC(=O)[C@@H]2CCCN2C(=O)[C@H](CO)NC(=O)[C@H](CCC(N)=O)NC(=O)[C@H](CC(N)=O)NC(=O)[C@H](Cc2ccccc2)NC(=O)[C@@H]2CCCN2C(=O)[C@H](Cc2ccc(O)cc2)NC(=O)[C@H](CCC(=O)O)NC(=O)[C@H](C)NC(=O)[C@H](CCC(=O)O)NC(=O)[C@H](C(C)C)NC(=O)[C@H]([C@@H](C)O)NC(=O)[C@H](C(C)C)NC1=O` [SLURP1 (6)] (H-CTLVTVEAEYPFNQSPVVTC-OH; disulfide 1-20; N-terminus assumed), the “inhibition of human α9α10 nAChR (result in words)” value (human α9α10 nAChR) was “no inhibition” and the “normalized ion current in human α3β2 nAChR (current with ACh alone = 1)” value (human α3β2 nAChR; 50 μM peptide, 30 μM ACh, mean ± SEM, n = 5) was 0.74 ± 0.08.

For `CC(C)C[C@@H]1NC(=O)[C@H](C(C)C)NC(=O)[C@H](CCCNC(=N)N)NC(=O)[C@H]([C@@H](C)O)NC(=O)[C@H](C)NC(=O)[C@H]([C@@H](C)O)NC(=O)[C@@H](N)CSSC[C@@H](C(=O)O)NC(=O)[C@H]([C@@H](C)O)NC(=O)[C@H](C(C)C)NC(=O)[C@H](CC(C)C)NC(=O)[C@@H]2CCCN2C(=O)[C@H](CC(C)C)NC(=O)[C@H](CC(=O)O)NC(=O)[C@H](CCC(=O)O)NC(=O)[C@H]([C@@H](C)O)NC(=O)[C@H](CC(N)=O)NC(=O)[C@H](CO)NC1=O` [SLURP2 (7)] (H-CTATRVLSNTEDLPLVTC-OH; disulfide 1-18; N-terminus assumed), the “inhibition of human α9α10 nAChR (result in words)” value (human α9α10 nAChR) was “no inhibition” and the “activity on ion currents in α3β2 nAChR (result in words)” value (human α3β2 nAChR) was “inactive”.

With `CSCC[C@@H]1NC(=O)[C@H](CCCNC(=N)N)NC(=O)[C@H](CCCNC(=N)N)NC(=O)[C@H](C(C)C)NC(=O)[C@H](C(C)C)NC(=O)[C@H](CCC(=O)O)NC(=O)[C@H](Cc2ccc(O)cc2)NC(=O)[C@@H]2CCCN2C(=O)[C@H](CO)NC(=O)[C@H](CCCNC(=N)N)NC(=O)[C@H](CCC(N)=O)NC(=O)[C@H](Cc2c[nH]cn2)NC(=O)[C@H](CCCNC(=N)N)NC(=O)[C@H](C(C)C)NC(=O)[C@H](CCSC)NC(=O)[C@H](CCCCN)NC(=O)[C@@H](N)CSSC[C@@H](C(=O)O)NC1=O` [SSS (5)] (H-CKMVRHQRSPYEVVRRMC-OH; disulfide 1-18; N-terminus assumed) the “fold more active against α7 nAChR than the Lynx1 fragment (1)” value (human α7 nAChR; ratio of IC50 values of the radioligand assay) was 10 fold, the “inhibition of ion currents in human α9α10 nAChR” value (human α9α10 nAChR; 100 μM peptide, 25 μM acetylcholine, X. laevis oocytes, n = 3) was 50% and the “activity on ion currents in α3β2 nAChR (result in words)” value (human α3β2 nAChR) was “inactive”.
